Measured values from patent publication US20080038809A1, “ISOLATED LECTIN POLYPEPTIDES CONSISTING OF TRUNCATED […] UDP-GalNAc:POLYPEPTIDE N- ACETYLGALACTOSAMINYLTRANSFERASES” (GLYCOZYM APS, priority 2002, published 2008).
“Also recorded” adds a separate entry of the source.

Assays:
GalNAc-T4 = GalNAc-T4 (Homo sapiens, UniProt Q8N4A0); details: mM concentrations; cited from earlier work
[1] = test system: MUC5AC in HT-29 MTX cells; test: MUC5AC secretion, SDS-PAGE western blot of media with LUM5-1 (FIG. 17); format: cell-based, human; details: 5 mM, continuous culture, media at 14 days
Procedure: FIG. 17 illustrates SDS-PAGE Western analysis of MUC5AC secretion from HT29MTX cells using polyclonal anti-MUC5AC antibody LUM5-1. In order to evaluate GalNAcβ-benzyl as an inhibitor of mucin glycosylation and secretion we used the HT-29 metotrexate (MTX) cultured colon carcinoma cells of mucin secreting phenotype. HT-29 MTX cells have a goblet cell like phenotype with constitutive production of MUC5AC. Cells were continuously grown up to 21 days in the presence of 5 mM GalNAcα-benzyl, 5 mM GalNAcβ-benzyl, 5 mM GlcNAcα-benzyl and without inhibitor. […] In striking contrast, MUC5AC was not detected in the media from cells treated with GalNAcα-benzyl (Lane 3) or GalNAcβ-benzyl (Lane 4). Results shown are from media collected at 14 days.
(§1) In order to evaluate GalNAcβ-benzyl as an inhibitor of mucin glycosylation and secretion we used the cultured colon carcinoma cells of mucin secreting phenotypes: HT-29 metotrexate (MTX) cells selected from the HT-29 cell line by culture in the presence of MTX (kind gift from G. Huet, France). The HT-29 MTX cells were selected to yield a goblet cell like phenotype with constitutive production of MUC5AC. In order to ensure proper goblet cell differentiation the HT29MTX cell line were continuously grown up to 21 days in the presence of 5 mM GalNAcα-benzyl, 5 mM GalNAcβ-benzyl, 5 mM GlcNAcα-benzyl and without inhibitor using culture conditions as described in Hennebicq-Reig et al. (Permanent exposure of mucin-secreting HT-29 cells to benzyl-N-acetyl-alpha-D-galactosaminide induces abnormal O-glycosylation of mucins and inhibits constitutive and stimulated MUC5AC secretion. Biochem J. 1998; 334:283-95). […] Furthermore the viscosity of the media from cells with and without inhibitor was evaluated using viscosity micro-measurement.

[2] = test system: MUC1 in CHO1d1D/MUC1F-clone2 cells; test: MUC1 expression in cell lysates, immunoprecipitation and SDS-PAGE western blot (FIGS. 12-15); format: cell-based, Chinese Hamster; details: 2 mM; for SDS-PAGE migration of MUC1 (O-glycosylation): cells grown in Gal and GalNAc
Procedure: FIG. 12 is an SDS-PAGE Western analysis of GalNAcα-benzyl inhibition of MUC1 expression in CHO 1d1D cells stably transfected with a full coding MUC1 construct. […] Cells were further treated with 2 mM GalNAcα-benzyl (lanes 1, 4, 7, 10), 2 mM GlcNAcα-benzyl (lanes 2, 5, 8, 11) or no inhibitor (lanes 3, 6, 9, 12). Cells were washed and lysed at 24 or 48 hours and the lysates subjected to immunoprecipitation with monoclonal antibody HMFG2, which broadly recognize MUC1 glycoforms. Immunoprecipitates were analysed by SDS-PAGE and western blot using HMFG2 antibody to detect MUC1 expression. Lane M indicates molecular markers with assigned mw. Lane C includes a control MUC1 180-mer tandem repeat peptide which has been GalNAc-glycosylated with 3 moles GalNAc per repeat using GalNAc-T2. The sharp bands migrating at 100-200 kd are immunoglobulins indicated by IgG.
Cells were further treated with 2 mM GalNAcα-benzyl (lanes 1, 4, 7, 10), 2 mM GalNAcβ-benzyl (lanes 2, 5, 8, 11) or 2 mM GlcNAcα-benzyl (lanes 3, 6, 9, 12). Cells were washed and lysed at 36 hours and the lysates subjected to immunoprecipitation with monoclonal antibodies HMFG2 (lanes 1-6) or 5E5 (lanes 7-12). Immunoprecipitates were analysed by SDS-PAGE and western blot using HMFG2 antibody. Lanes M and C as described in legend to FIG. 7.
We next analysed the expression of MUC1 produced by CHO1d1D/MUC1F-clone2 cells by SDS-PAGE western analysis. […] Cells were further treated with 2 mM GalNAcα-benzyl, GlcNAcα-benzyl or no inhibitor. Cells were washed and lysed at 24 or 48 hours and the lysates subjected to immunoprecipitation with monoclonal antibody HMFG2, which broadly recognize MUC1 glycoforms. Immunoprecipitates were analysed by SDS-PAGE and western blot using HMFG2 antibody to detect MUC1 expression. […] In striking contrast, treatment with GalNAcα-benzyl had significant effect after 48 hours. […] This indicates some heterogeneity in glycosylation.
As shown in Examples 2 and 3, polypeptide GalNAc-transferases contain lectin domains with binding properties for GalNAc-peptides including GalNAc-MUC1 peptides. […] GalNAcβ-benzyl, the β-anomeric configuration of GalNAc-benzyl (there is a β linkage between the N-acetylgalactosamine and the benzyl ring), was custom synthesized by Alberta Research Council (Canada), and its structure was confirmed by mass spectrometry and ^1H-NMR. […] Cells were then treated with 2 mM GalNAcα-benzyl, GalNAcβ-benzyl, or GlcNAcα-benzyl as control (GlcNAcα-benzyl was shown in Example 4 to have no effect). Cells were washed and lysed as described above after 36 hours and the lysates subjected to immunoprecipitation with anti-MUC1 monoclonal antibodies HMFG2 or 5E5. […] FIG. 15 illustrates the same experiment as in FIG. 14 except that the detection antibody is 5E5 and only Tn and STn MUC1 glycoforms are visualised.

GalNAc-T7 = GalNAc-T7 (Homo sapiens, UniProt Q86SF2); details: mM concentrations; cited from earlier work
HT29 MTX cells = details: cited from earlier work
HT-29 MTX cells = test: Viscosity of media from HT-29 MTX cells; format: cell-based, human; details: 5 mM; data not shown
Excerpt: as §1

β3Gal-T5 = β3Gal-T5 (Homo sapiens, UniProt Q9Y2C3); details: cited from earlier work
β3Gal-T5, sequence (Q9Y2C3 whole entry, species assumed): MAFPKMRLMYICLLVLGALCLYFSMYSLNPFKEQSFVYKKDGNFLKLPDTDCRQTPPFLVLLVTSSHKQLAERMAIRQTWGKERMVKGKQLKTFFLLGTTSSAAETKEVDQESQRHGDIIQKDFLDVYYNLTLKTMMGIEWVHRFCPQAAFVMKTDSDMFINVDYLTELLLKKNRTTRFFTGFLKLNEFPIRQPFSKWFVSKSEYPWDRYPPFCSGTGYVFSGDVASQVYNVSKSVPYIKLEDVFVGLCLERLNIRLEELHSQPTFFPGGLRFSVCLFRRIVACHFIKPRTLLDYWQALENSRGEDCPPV

GalNAc-T7, sequence (Q86SF2 whole entry): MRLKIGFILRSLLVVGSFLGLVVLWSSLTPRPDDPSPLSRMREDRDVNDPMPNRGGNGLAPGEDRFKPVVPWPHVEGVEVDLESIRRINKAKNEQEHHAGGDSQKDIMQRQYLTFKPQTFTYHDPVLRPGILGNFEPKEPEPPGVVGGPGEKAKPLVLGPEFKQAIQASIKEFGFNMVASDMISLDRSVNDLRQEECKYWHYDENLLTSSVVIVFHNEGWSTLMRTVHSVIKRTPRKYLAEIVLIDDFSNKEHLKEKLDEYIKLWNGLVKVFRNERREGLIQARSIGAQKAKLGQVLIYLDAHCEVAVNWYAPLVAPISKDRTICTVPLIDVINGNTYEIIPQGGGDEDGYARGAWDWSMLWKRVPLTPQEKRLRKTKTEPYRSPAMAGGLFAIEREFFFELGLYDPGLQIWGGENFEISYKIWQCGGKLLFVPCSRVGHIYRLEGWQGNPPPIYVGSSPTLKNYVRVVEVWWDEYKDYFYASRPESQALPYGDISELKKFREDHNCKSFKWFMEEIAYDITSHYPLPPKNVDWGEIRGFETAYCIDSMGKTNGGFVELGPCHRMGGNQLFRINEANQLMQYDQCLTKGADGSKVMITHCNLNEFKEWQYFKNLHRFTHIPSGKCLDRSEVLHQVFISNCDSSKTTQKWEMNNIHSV
GalNAc-T4, sequence (Q8N4A0 whole entry): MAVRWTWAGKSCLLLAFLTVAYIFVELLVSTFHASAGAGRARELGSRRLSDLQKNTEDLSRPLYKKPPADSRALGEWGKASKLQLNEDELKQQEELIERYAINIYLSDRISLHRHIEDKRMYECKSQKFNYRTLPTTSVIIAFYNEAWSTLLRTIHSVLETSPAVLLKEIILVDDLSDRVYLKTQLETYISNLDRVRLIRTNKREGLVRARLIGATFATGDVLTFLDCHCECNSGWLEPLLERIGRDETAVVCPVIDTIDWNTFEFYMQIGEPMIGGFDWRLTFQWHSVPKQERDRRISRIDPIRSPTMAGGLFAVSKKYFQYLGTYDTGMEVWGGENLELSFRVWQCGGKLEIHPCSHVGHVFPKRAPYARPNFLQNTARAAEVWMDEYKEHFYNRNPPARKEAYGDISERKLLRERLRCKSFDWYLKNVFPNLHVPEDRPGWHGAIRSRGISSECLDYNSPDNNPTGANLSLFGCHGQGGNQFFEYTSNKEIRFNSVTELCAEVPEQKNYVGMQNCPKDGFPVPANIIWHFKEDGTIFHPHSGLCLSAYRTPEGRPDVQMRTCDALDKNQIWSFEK

Structure (SMILES)	inhibition of lectin mediated GalNAc-glycopeptide substrate specificity of GalNAc-T4 (GalNAc-T4)	MUC5AC in media (secretion) ([1]; listed as GalNAcα-benzyl)	MUC1 expression ([2]; 24 hours, HMFG2 blot)	MUC1 expression ([2]; 36 hours, 5E5 blot (FIG. 15))	MUC1 expression ([2]; 36 hours, HMFG2 blot (FIG. 14))	MUC1 expression ([2]; 48 hours, HMFG2 blot, cells grown in GalNAc or Gal and GalNAc)	SDS-PAGE migration of MUC1 (O-glycosylation) ([2]; 48 hours, listed as GalNAcα-benzyl)	inhibition of lectin mediated GalNAc-glycopeptide substrate specificity of GalNAc-T7 (GalNAc-T7)	inhibition of mucin secretion (HT29 MTX cells)	viscosity of media (HT-29 MTX cells)	MUC5AC in media (secretion) [1]	SDS-PAGE migration of MUC1 (O-glycosylation) ([2]; 36 hours)	activity of β3Gal-T5 with the compound as acceptor (β3Gal-T5)
CC(=O)N[C@H]1[C@@H](OCc2ccccc2)O[C@H](CO)[C@H](O)[C@@H]1O [BzlαGalNAc, benzyl-N-acetyl-alpha-D-galactosaminide]	can inhibit	diminished secretion; also recorded: not detected	no significant effect	strong inhibition	significant reduction	significant reduction	significant shift in migration; also recorded: marked shift in migration	can inhibit	–	–	–	–	–
CC(=O)N[C@H]1[C@@H](OCc2ccccc2)O[C@H](CO)[C@H](O)[C@@H]1O [GalNAcα-benzyl, benzyl-N-acetyl-alpha-D-galactosaminide]	–	–	–	–	–	–	–	–	Inhibition of mucin secretion	–	–	–	–
CC(=O)N[C@H]1[C@H](OCc2ccccc2)O[C@H](CO)[C@H](O)[C@@H]1O [GalNAcβ-benzyl]	–	–	–	strong inhibition; also recorded: same or better reduction	significant reduction; also recorded: same or better reduction	–	–	–	–	less viscous	diminished secretion; also recorded: not detected	does not interfere with O-glycosylation; also recorded: no change in the migration	no or very poor activity
